{"source": "PubChem BioAssay (NCI)", "experiment_in_all_cases": "NCI anticancer screen, dose series, 48 h", "key": {"[1]": {"system": "HCC-2998 colon"}, "[2]": {"system": "HOP-92 NSCLC"}, "[3]": {"system": "SW-620 colon"}, "[4]": {"system": "SF-268 CNS"}, "[5]": {"system": "SN12C renal"}, "[6]": {"system": "MALME-3M melanoma"}, "[7]": {"system": "KM12 colon"}, "[8]": {"system": "786-0 renal"}, "[9]": {"system": "SK-MEL-2 melanoma"}, "[10]": {"system": "PC-3 prostate"}, "[11]": {"system": "NCI-H226 lung"}, "[12]": {"system": "HCT-116 colon"}, "[13]": {"system": "SNB-75 CNS"}, "[14]": {"system": "RXF 393 renal"}, "[15]": {"system": "UACC-62 melanoma"}, "[16]": {"system": "NCI/ADR-RES ovarian"}, "[17]": {"system": "SK-MEL-28 melanoma"}, "[18]": {"system": "CAKI-1 renal"}, "[19]": {"system": "TK-10 renal"}, "[20]": {"system": "CCRF-CEM leukemia"}, "[21]": {"system": "NCI-H23 lung"}, "[22]": {"system": "A498 renal"}, "[23]": {"system": "DU-145 prostate"}, "[24]": {"system": "HCT-15 colon"}, "[25]": {"system": "OVCAR-5 ovarian"}, "[26]": {"system": "IGROV1 ovarian"}, "[27]": {"system": "UO-31 renal"}, "[28]": {"system": "OVCAR-8 ovarian"}, "[29]": {"system": "SNB-19 CNS"}, "[30]": {"system": "BT-549 breast"}, "[31]": {"system": "EKVX NSCLC"}, "[32]": {"system": "MOLT-4 leukemia"}, "[33]": {"system": "MDA-MB-435"}, "[34]": {"system": "HL-60(TB) leukemia"}, "[35]": {"system": "SK-MEL-5 melanoma"}, "[36]": {"system": "HT29 colon"}, "[37]": {"system": "UACC-257 melanoma"}, "[38]": {"system": "SF-295 CNS"}, "[39]": {"system": "ACHN renal"}, "[40]": {"system": "NCI-H522 lung"}, "[41]": {"system": "M14 melanoma"}, "[42]": {"system": "A549 NSCLC"}, "[43]": {"system": "NCI-H460 lung"}, "[44]": {"system": "OVCAR-4 ovarian"}, "[45]": {"system": "HOP-62 NSCLC"}, "[46]": {"system": "SK-OV-3 ovarian"}, "[47]": {"system": "SF-539 CNS"}}, "note": "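A five-concentration, 48-hour dose response in 96-well plates underlies each endpoint, interpolated linearly between surrounding concentrations. GI50: concentration for 50% inhibition of growth. TGI: total growth inhibition.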"}
{"smiles": "COc1ccc2nc3ccccc3c(NCc3ccc(Cl)cc3)c2c1", "values": [{"measurement": "GI50", "setting": "[1]", "result": 1760, "unit": "nM"}, {"measurement": "TGI", "setting": "[1]", "result": 3240, "unit": "nM"}, {"measurement": "GI50", "setting": "[2]", "result": 1480, "unit": "nM"}, {"measurement": "TGI", "setting": "[2]", "result": 3350, "unit": "nM"}, {"measurement": "GI50", "setting": "[3]", "result": 1650, "unit": "nM"}, {"measurement": "TGI", "setting": "[3]", "result": 3470, "unit": "nM"}, {"measurement": "GI50", "setting": "[4]", "result": 1980, "unit": "nM"}, {"measurement": "TGI", "setting": "[4]", "result": 4610, "unit": "nM"}, {"measurement": "GI50", "setting": "[5]", "result": 1730, "unit": "nM"}, {"measurement": "TGI", "setting": "[5]", "result": 3860, "unit": "nM"}, {"measurement": "GI50", "setting": "[6]", "result": 1810, "unit": "nM"}, {"measurement": "TGI", "setting": "[6]", "result": 3390, "unit": "nM"}, {"measurement": "GI50", "setting": "[7]", "result": 3080, "unit": "nM"}, {"measurement": "TGI", "setting": "[7]", "result": 11300, "unit": "nM"}, {"measurement": "GI50", "setting": "[8]", "result": 1730, "unit": "nM"}, {"measurement": "TGI", "setting": "[8]", "result": 3200, "unit": "nM"}, {"measurement": "GI50", "setting": "[9]", "result": 1930, "unit": "nM"}, {"measurement": "TGI", "setting": "[9]", "result": 3700, "unit": "nM"}, {"measurement": "GI50", "setting": "[10]", "result": 1790, "unit": "nM"}, {"measurement": "TGI", "setting": "[10]", "result": 4240, "unit": "nM"}, {"measurement": "GI50", "setting": "[11]", "result": 2140, "unit": "nM"}, {"measurement": "TGI", "setting": "[11]", "result": 5740, "unit": "nM"}, {"measurement": "GI50", "setting": "[12]", "result": 1790, "unit": "nM"}, {"measurement": "TGI", "setting": "[12]", "result": 4140, "unit": "nM"}, {"measurement": "GI50", "setting": "[13]", "result": 1270, "unit": "nM"}, {"measurement": "TGI", "setting": "[13]", "result": 2620, "unit": "nM"}, {"measurement": "GI50", "setting": "[14]", "result": 1450, "unit": "nM"}, {"measurement": "TGI", "setting": "[14]", "result": 3000, "unit": "nM"}, {"measurement": "GI50", "setting": "[15]", "result": 1660, "unit": "nM"}, {"measurement": "TGI", "setting": "[15]", "result": 3210, "unit": "nM"}, {"measurement": "GI50", "setting": "[16]", "result": 1800, "unit": "nM"}, {"measurement": "TGI", "setting": "[16]", "result": 3970, "unit": "nM"}, {"measurement": "GI50", "setting": "[17]", "result": 1780, "unit": "nM"}, {"measurement": "TGI", "setting": "[17]", "result": 3360, "unit": "nM"}, {"measurement": "GI50", "setting": "[18]", "result": 1690, "unit": "nM"}, {"measurement": "TGI", "setting": "[18]", "result": 3230, "unit": "nM"}, {"measurement": "GI50", "setting": "[19]", "result": 1960, "unit": "nM"}, {"measurement": "TGI", "setting": "[19]", "result": 3840, "unit": "nM"}, {"measurement": "GI50", "setting": "[20]", "result": 2660, "unit": "nM"}, {"measurement": "TGI", "setting": "[20]", "result": 9480, "unit": "nM"}, {"measurement": "GI50", "setting": "[21]", "result": 1860, "unit": "nM"}, {"measurement": "TGI", "setting": "[21]", "result": 4520, "unit": "nM"}, {"measurement": "GI50", "setting": "[22]", "result": 1440, "unit": "nM"}, {"measurement": "TGI", "setting": "[22]", "result": 2770, "unit": "nM"}, {"measurement": "GI50", "setting": "[23]", "result": 2650, "unit": "nM"}, {"measurement": "TGI", "setting": "[23]", "result": 7330, "unit": "nM"}, {"measurement": "GI50", "setting": "[24]", "result": 1730, "unit": "nM"}, {"measurement": "TGI", "setting": "[24]", "result": 3880, "unit": "nM"}, {"measurement": "GI50", "setting": "[25]", "result": 1910, "unit": "nM"}, {"measurement": "TGI", "setting": "[25]", "result": 4900, "unit": "nM"}, {"measurement": "GI50", "setting": "[26]", "result": 2400, "unit": "nM"}, {"measurement": "TGI", "setting": "[26]", "result": 6650, "unit": "nM"}, {"measurement": "GI50", "setting": "[27]", "result": 1340, "unit": "nM"}, {"measurement": "TGI", "setting": "[27]", "result": 2750, "unit": "nM"}, {"measurement": "GI50", "setting": "[28]", "result": 2250, "unit": "nM"}, {"measurement": "TGI", "setting": "[28]", "result": 5910, "unit": "nM"}, {"measurement": "GI50", "setting": "[29]", "result": 2260, "unit": "nM"}, {"measurement": "TGI", "setting": "[29]", "result": 6350, "unit": "nM"}, {"measurement": "GI50", "setting": "[30]", "result": 5640, "unit": "nM"}, {"measurement": "TGI", "setting": "[30]", "result": 20800, "unit": "nM"}, {"measurement": "GI50", "setting": "[31]", "result": 2300, "unit": "nM"}, {"measurement": "TGI", "setting": "[31]", "result": 5920, "unit": "nM"}, {"measurement": "GI50", "setting": "[32]", "result": 3190, "unit": "nM"}, {"measurement": "TGI", "setting": "[32]", "result": 13300, "unit": "nM"}, {"measurement": "GI50", "setting": "[33]", "result": 1500, "unit": "nM"}, {"measurement": "TGI", "setting": "[33]", "result": 3060, "unit": "nM"}, {"measurement": "GI50", "setting": "[34]", "result": 2290, "unit": "nM"}, {"measurement": "TGI", "setting": "[34]", "result": 5240, "unit": "nM"}, {"measurement": "GI50", "setting": "[35]", "result": 1760, "unit": "nM"}, {"measurement": "TGI", "setting": "[35]", "result": 3190, "unit": "nM"}, {"measurement": "GI50", "setting": "[36]", "result": 2020, "unit": "nM"}, {"measurement": "TGI", "setting": "[36]", "result": 7080, "unit": "nM"}, {"measurement": "GI50", "setting": "[37]", "result": 2030, "unit": "nM"}, {"measurement": "TGI", "setting": "[37]", "result": 4570, "unit": "nM"}, {"measurement": "GI50", "setting": "[38]", "result": 1500, "unit": "nM"}, {"measurement": "TGI", "setting": "[38]", "result": 2930, "unit": "nM"}, {"measurement": "GI50", "setting": "[39]", "result": 1550, "unit": "nM"}, {"measurement": "TGI", "setting": "[39]", "result": 2890, "unit": "nM"}, {"measurement": "GI50", "setting": "[40]", "result": 2020, "unit": "nM"}, {"measurement": "TGI", "setting": "[40]", "result": 5080, "unit": "nM"}, {"measurement": "GI50", "setting": "[41]", "result": 1810, "unit": "nM"}, {"measurement": "TGI", "setting": "[41]", "result": 3470, "unit": "nM"}, {"measurement": "GI50", "setting": "[42]", "result": 2060, "unit": "nM"}, {"measurement": "TGI", "setting": "[42]", "result": 4890, "unit": "nM"}, {"measurement": "GI50", "setting": "[43]", "result": 1880, "unit": "nM"}, {"measurement": "TGI", "setting": "[43]", "result": 3690, "unit": "nM"}, {"measurement": "GI50", "setting": "[44]", "result": 2130, "unit": "nM"}, {"measurement": "TGI", "setting": "[44]", "result": 6350, "unit": "nM"}, {"measurement": "GI50", "setting": "[45]", "result": 1720, "unit": "nM"}, {"measurement": "TGI", "setting": "[45]", "result": 3440, "unit": "nM"}, {"measurement": "GI50", "setting": "[46]", "result": 3190, "unit": "nM"}, {"measurement": "TGI", "setting": "[46]", "result": 9800, "unit": "nM"}, {"measurement": "GI50", "setting": "[47]", "result": 1710, "unit": "nM"}, {"measurement": "TGI", "setting": "[47]", "result": 3240, "unit": "nM"}]}
